Data published in patent US20100048462A1, “TRUNCATED PTH PEPTIDES WITH A CYCLIC CONFORMATION” (Zealand Pharma A/S, priority 2006, published 2010).
Bridge positions count the residues as written; N and C are the ends. Square brackets hold non-standard residues; d marks the D form. Peptide text beside a SMILES is read from it. hArg = N=C(N)NCCCC[C@H](N)C(=O)O; Ac5c = NC1(C(=O)O)CCCC1; Dap = NC[C@H](N)C(=O)O; Aib = CC(C)(N)C(=O)O

What was measured:
Saos-2 PTH1R = target: T1, Saos-2 PTH1R (Homo sapiens, UniProt Q03431); assay: cAMP-efficacy assay in Saos-2 cells; format: cell-based; settings: for potency compared to linear / non-stabilized counterparts, in words / EC50 / pEC50 ± SEM: cAMP; for EC50 / pEC50 ± SEM: 100 μM IBMX, 37° C. 15 min, suffix of label = salt tested; for Emax ± SEM: relative effect to the control (SEQ ID NO: 32)
T1 construct: endogenous in cells; host or cells: Saos-2
T1 sequence (Q03431 27-593): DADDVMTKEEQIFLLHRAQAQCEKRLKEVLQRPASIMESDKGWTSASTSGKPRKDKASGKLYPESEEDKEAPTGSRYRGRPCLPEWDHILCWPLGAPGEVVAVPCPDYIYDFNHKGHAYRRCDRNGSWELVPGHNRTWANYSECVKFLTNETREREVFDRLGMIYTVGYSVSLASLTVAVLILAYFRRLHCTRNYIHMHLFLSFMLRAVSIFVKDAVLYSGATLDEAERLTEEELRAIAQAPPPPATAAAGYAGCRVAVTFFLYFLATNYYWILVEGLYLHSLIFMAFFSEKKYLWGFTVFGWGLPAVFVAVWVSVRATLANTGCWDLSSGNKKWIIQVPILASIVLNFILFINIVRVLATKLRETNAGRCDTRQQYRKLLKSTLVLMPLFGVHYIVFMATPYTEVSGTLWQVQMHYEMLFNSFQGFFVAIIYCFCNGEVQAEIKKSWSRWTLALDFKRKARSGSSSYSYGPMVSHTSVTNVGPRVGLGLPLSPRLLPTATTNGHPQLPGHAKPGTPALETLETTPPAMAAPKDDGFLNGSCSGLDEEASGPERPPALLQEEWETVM
Procedure, shortened: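 cAMP accumulation was assayed by FlashPlate after 15 min peptide stimulation at 37 °C of Saos-2 cells in Tyrode's buffer containing 100 μM IBMX and 0.1% BSA, with the reaction stopped by ice-cold HCl. Variable-slope logistic fitting gave EC50/pEC50, Hill coefficient and Emax, with single or triplicate points.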

CYP2D6 = CYP2D6 (Homo sapiens, UniProt P10635); assay: CYP2D6 inhibition in pooled human liver microsomes; format: in vitro ADME; parameters: Pooled human liver microsomes (HLM, final concentration 0.05 mg protein/mL); tissue BD Biosciences 452161; host or cells: pooled human liver microsomes; settings: 10 μM compound, dextrorphan formation rate
Experimental: Stock solutions of the test compounds (1 mM) were prepared in 50% isopropanol or 20% DMSO. Pooled human liver microsomes (HLM, final concentration 0.05 mg protein/mL) were mixed with phosphate buffer (0.1 M potassium phosphate, pH 7.4), CYP2D6 substrate (dextrometrorphan, 5 μM final concentration) and test compound (10 μM), quinidine (0.5 μM) or vehicle (0.2% DMSO or 0.5% isopropanol). The mixture was preincubated for 5 min at 37° C. prior to initiation of the reaction addition of a NADPH regenerating mixture (Final concentration: 1.25 mM NADP^+, 3.3 mM Glucose-6-phosphate, 3.3 mM MgCL2 and 0.4 U/mL glucose-6-phosphat dehydrogenase). After 5 minutes the reaction was stopped by addition of 0.25 volume stop reagent (94% acetonitrile, 6% acetic acid). Each experiment was performed in duplicate or triplicate.
The quantification of CYP2D6 product (dextrorphan) was performed by LC/MS/MS. After centrifugation for 5 min at 10.000 g, 40 μL of the supernatant was injected onto a C8 RP-HPLC column (XterraMS, C8, […], 50×2.1 mm). Dextrorphan was eluted by a linear gradient from 0 to 90% acetonitrile in 0.1% formic acid over 4 min using a flow rate of 0.15 ml/min. The concentration of dextrorphan in the reaction mixture was estimated from the peak area of the MS/MS transition (m/z 258.1>199) using an external calibration curve (Table 8).
The CYP2D6 activity in HLM was calculated as the metabolite formation rate: […]
Where, v is the formation rate, [metabolite] is the detected concentration of dextrorphan (pmol/mL) at the time (t, min) and [protein] is the protein concentration (mg/mL) in the reaction mixture. The influence of the test compounds on the CYP2D6 activity was calculated as % of the activity measured when incubated with the vehicle. The effect of CYP2D6 inhibitor (quinidine) was included as inhibition control within each batch analysis. A reduction in CYP2D6 activity to less than 70% of the vehicle control was considered significant.

Chain of CYP2D6 (P10635 whole entry): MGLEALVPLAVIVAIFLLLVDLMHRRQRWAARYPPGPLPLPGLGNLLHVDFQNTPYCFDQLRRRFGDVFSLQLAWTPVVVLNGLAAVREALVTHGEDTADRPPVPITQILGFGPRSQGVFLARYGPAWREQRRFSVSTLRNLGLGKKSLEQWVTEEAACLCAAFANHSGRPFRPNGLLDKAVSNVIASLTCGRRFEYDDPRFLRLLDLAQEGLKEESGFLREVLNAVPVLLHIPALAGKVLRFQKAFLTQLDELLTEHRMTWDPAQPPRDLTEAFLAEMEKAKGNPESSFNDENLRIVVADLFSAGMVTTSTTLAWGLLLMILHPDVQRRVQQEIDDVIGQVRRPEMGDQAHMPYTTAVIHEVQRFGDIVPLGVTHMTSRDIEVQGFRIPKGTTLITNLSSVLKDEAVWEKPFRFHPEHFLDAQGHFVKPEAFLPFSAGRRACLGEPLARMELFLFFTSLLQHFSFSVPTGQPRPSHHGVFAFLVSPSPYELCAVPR

CC[C@H](C)[C@H](NC(=O)[C@H](CCC(=O)O)NC(=O)C(C)(C)NC(=O)[C@@H](NC(=O)C1(N)CCCC1)C(C)C)C(=O)N[C@@H](CCC(N)=O)C(=O)N[C@@H](CC(C)C)C(=O)N[C@@H](CCSC)C(=O)N[C@@H](Cc1c[nH]cn1)C(=O)N[C@@H](CC(N)=O)C(=O)N[C@@H](CC(C)C)C(=O)NCC(=O)N[C@H]1CCCCNC(=O)C[C@@H](C(N)=O)NC(=O)[C@H](CC(N)=O)NC(=O)[C@H](CC(C)C)NC(=O)[C@H](Cc2c[nH]cn2)NC1=O [SEQ ID NO: 34] (H-[Ac5c]V[Aib]EIQLMHNLGKHLND-NH2; lactam 13-17)
potency compared to linear / non-stabilized counterparts, in words (Saos-2 PTH1R): significantly higher potency | EC50 (Saos-2 PTH1R): 214 nM | potency compared to linear / non-stabilized counterparts, in words (Saos-2 PTH1R; listed as 34): increased potencies | potency compared to linear / non-stabilized counterparts, in words (Saos-2 PTH1R; listed as SEQ ID NO:34): strikingly higher potency | Emax ± SEM (Saos-2 PTH1R): 1.12 ± 0.09 | CYP2D6 activity (% of vehicle) (CYP2D6): 107 % of vehicle

CC[C@H](C)[C@H](NC(=O)[C@H](CCC(=O)O)NC(=O)[C@H](CO)NC(=O)[C@@H](NC(=O)[C@@H](N)CO)C(C)C)C(=O)N[C@@H](CCC(N)=O)C(=O)N[C@@H](CC(C)C)C(=O)N[C@@H](CCSC)C(=O)N[C@@H](Cc1c[nH]cn1)C(=O)N[C@@H](CC(N)=O)C(=O)N[C@@H](CC(C)C)C(=O)NCC(=O)N[C@H]1CCCCNC(=O)C[C@@H](C(N)=O)NC(=O)[C@H](CC(N)=O)NC(=O)[C@H](CC(C)C)NC(=O)[C@H](Cc2c[nH]cn2)NC1=O [SEQ ID NO: 36]
pEC50 ± SEM (Saos-2 PTH1R): inactive | CYP2D6 activity (% of vehicle) (CYP2D6): 79 % of vehicle

CC[C@H](C)[C@H](NC(=O)[C@H](CCC(=O)O)NC(=O)C(C)(C)NC(=O)[C@@H](NC(=O)C1(N)CCCC1)C(C)C)C(=O)N[C@@H](CCC(N)=O)C(=O)N[C@@H](CC(C)C)C(=O)N[C@@H](CCSC)C(=O)N[C@@H](Cc1c[nH]cn1)C(=O)N[C@@H](CCC(N)=O)C(=O)N[C@@H](CCCCNC(=N)N)C(=O)N[C@@H](C)C(=O)N[C@H]1CCC(=O)NCCCC[C@@H](C(N)=O)NC(=O)[C@H](CC(N)=O)NC(=O)[C@H](CC(C)C)NC(=O)[C@H](Cc2c[nH]c3ccccc23)NC1=O [SEQ ID NO: 8, H-Ac5c-Val-Aib-Glu-Ile-Gln-Leu-Met-His-Gln-Har-Ala-Glu( )-Trp-Leu-Asn-Lys( )-NH2] (H-[Ac5c]V[Aib]EIQLMHQ[hArg]AEWLNK-NH2; lactam 13-17)
EC50 (Saos-2 PTH1R): 11.5 nM | Emax ± SEM (Saos-2 PTH1R): 1.07 ± 0.02 | CYP2D6 activity (% of vehicle) (CYP2D6): 99 % of vehicle

CC[C@H](C)[C@H](NC(=O)[C@H](CCC(=O)O)NC(=O)C(C)(C)NC(=O)[C@@H](NC(=O)C1(N)CCCC1)C(C)C)C(=O)N[C@@H](CCC(=O)O)C(=O)N[C@@H](CC(C)C)C(=O)N[C@@H](CCSC)C(=O)N[C@@H](Cc1c[nH]cn1)C(=O)N[C@@H](CCC(N)=O)C(=O)N[C@@H](CCCCNC(=N)N)C(=O)N[C@@H](C)C(=O)N[C@H]1CCCCNC(=O)C[C@@H](C(N)=O)NC(=O)[C@H](CC(N)=O)NC(=O)[C@H](CC(C)C)NC(=O)[C@H](Cc2c[nH]c3ccccc23)NC1=O [SEQ ID NO: 18, H-Ac5c-Val-Aib-Glu-IIe-Glu-Leu-Met-His-Gln-Har-Ala-Lys( )-Trp-Leu-Asn-Asp( )-NH2] (H-[Ac5c]V[Aib]EIELMHQ[hArg]AKWLND-NH2; lactam 13-17)
EC50 (Saos-2 PTH1R): 51.3 nM | Emax ± SEM (Saos-2 PTH1R): 1.24 ± 0.29 | CYP2D6 activity (% of vehicle) (CYP2D6): 89 % of vehicle

CC[C@H](C)[C@H](NC(=O)[C@H](CCC(=O)O)NC(=O)C(C)(C)NC(=O)[C@@H](NC(=O)C1(N)CCCC1)C(C)C)C(=O)N[C@@H](CCC(N)=O)C(=O)N[C@@H](CC(C)C)C(=O)N[C@@H](CCSC)C(=O)N[C@@H](Cc1c[nH]cn1)C(=O)N[C@@H](CC(N)=O)C(=O)N[C@@H](CC(C)C)C(=O)NCC(=O)N[C@@H](CCCCN)C(=O)N[C@@H](Cc1c[nH]cn1)C(=O)N[C@@H](CC(C)C)C(=O)N[C@@H](CC(N)=O)C(=O)N[C@@H](CC(=O)O)C(N)=O [SEQ ID NO: 1] (H-[Ac5c]V[Aib]EIQLMHNLGKHLND-NH2)
pEC50 ± SEM (Saos-2 PTH1R): inactive | CYP2D6 activity (% of vehicle) (CYP2D6): 57 % of vehicle

CC[C@H](C)[C@H](NC(=O)[C@H](CCC(=O)O)NC(=O)C(C)(C)NC(=O)[C@@H](NC(=O)C1(N)CCCC1)C(C)C)C(=O)N[C@@H](CCC(N)=O)C(=O)N[C@@H](CC(C)C)C(=O)N[C@@H](CCSC)C(=O)N[C@@H](Cc1c[nH]cn1)C(=O)N[C@@H](CCC(N)=O)C(=O)N[C@@H](CCCCNC(=N)N)C(=O)N[C@@H](C)C(=O)N[C@H]1CCCCNC(=O)C[C@@H](C(=O)O)NC(=O)[C@H](CC(N)=O)NC(=O)[C@H](CC(C)C)NC(=O)[C@H](Cc2c[nH]c3ccccc23)NC1=O [SEQ ID NO: 4, H-Ac5c-Val-Aib-Glu-Ile-Gln-Leu-Met-His-Gln-Har-Ala-Lys( )-Trp-Leu-Asn-Asp( )-OH] (H-[Ac5c]V[Aib]EIQLMHQ[hArg]AKWLND-OH; lactam 13-17)
potency compared to linear / non-stabilized counterparts, in words (Saos-2 PTH1R): clearly higher potency | EC50 (Saos-2 PTH1R): 38 nM | potency compared to linear / non-stabilized counterparts, in words (Saos-2 PTH1R; listed as 4): increased potencies | potency compared to linear / non-stabilized counterparts, in words (Saos-2 PTH1R; listed as SEQ ID NO:4): higher potency | Emax ± SEM (Saos-2 PTH1R): 1.11 ± 0.03 | CYP2D6 activity (% of vehicle) (CYP2D6): 89 % of vehicle

CC[C@H](C)[C@H](NC(=O)[C@H](CCC(=O)O)NC(=O)C(C)(C)NC(=O)[C@@H](NC(=O)C1(N)CCCC1)C(C)C)C(=O)N[C@@H](CCC(N)=O)C(=O)N[C@@H](CC(C)C)C(=O)N[C@@H](CC(C)C)C(=O)N[C@@H](Cc1c[nH]cn1)C(=O)N[C@@H](CCC(N)=O)C(=O)N[C@@H](CCCCNC(=N)N)C(=O)N[C@@H](C)C(=O)N[C@H]1CNC(=O)C[C@@H](C(N)=O)NC(=O)[C@H](CC(N)=O)NC(=O)[C@H](CC(C)C)NC(=O)[C@H](Cc2c[nH]c3ccccc23)NC1=O [SEQ ID NO: 17, H-Ac5c-Val-Aib-Glu-Ile-Gln-Leu-Leu-His-Gln-Har-Ala-Dpr( )-Trp-Leu-Asn-Asp( )-NH2] (H-[Ac5c]V[Aib]EIQLLHQ[hArg]A[Dap]WLND-NH2; lactam 13-17)
EC50 (Saos-2 PTH1R): 776 nM | Emax ± SEM (Saos-2 PTH1R): 1.25 ± 0.05 | CYP2D6 activity (% of vehicle) (CYP2D6): 101 % of vehicle

CC[C@H](C)[C@H](NC(=O)[C@H](CCC(=O)O)NC(=O)C(C)(C)NC(=O)[C@@H](NC(=O)C1(N)CCCC1)C(C)C)C(=O)N[C@@H](CCC(N)=O)C(=O)N[C@@H](CC(C)C)C(=O)N[C@@H](CCSC)C(=O)N[C@@H](Cc1c[nH]cn1)C(=O)N[C@@H](CCC(N)=O)C(=O)N[C@@H](CCCCNC(=N)N)C(=O)N[C@@H](C)C(=O)N[C@H]1CCCCNC(=O)CC[C@@H](C(N)=O)NC(=O)[C@H](CC(N)=O)NC(=O)[C@H](CC(C)C)NC(=O)[C@H](Cc2c[nH]c3ccccc23)NC1=O [SEQ ID NO: 9, H-Ac5c-Val-Aib-Glu-Ile-Gln-Leu-Met-His-Gln-Har-Ala-Lys( )-Trp-Leu-Asn-Glu( )-NH2] (H-[Ac5c]V[Aib]EIQLMHQ[hArg]AKWLNE-NH2; lactam 13-17)
EC50 (Saos-2 PTH1R): 14.1 nM | Emax ± SEM (Saos-2 PTH1R): 1.03 ± 0.03 | CYP2D6 activity (% of vehicle) (CYP2D6): 85 % of vehicle

CC[C@H](C)[C@H](NC(=O)[C@H](CCC(=O)O)NC(=O)[C@H](CO)NC(=O)[C@@H](NC(=O)[C@@H](N)CO)C(C)C)C(=O)N[C@@H](CCC(N)=O)C(=O)N[C@@H](CC(C)C)C(=O)N[C@@H](CCSC)C(=O)N[C@@H](Cc1c[nH]cn1)C(=O)N[C@@H](CC(N)=O)C(=O)N[C@@H](CC(C)C)C(=O)NCC(=O)N[C@@H](CCCCN)C(=O)N[C@@H](Cc1c[nH]cn1)C(=O)N[C@@H](CC(C)C)C(=O)N[C@@H](CC(N)=O)C(=O)N[C@@H](CO)C(N)=O [SEQ ID NO: 37, reference compound]
pEC50 ± SEM (Saos-2 PTH1R): inactive | CYP2D6 activity (% of vehicle) (CYP2D6): 41 % of vehicle
